The source of these data is publication PMC11050282, “In Vitro and In Silico Studies on Cytotoxic Properties of Oxythiamine and 2′-Methylthiamine” (International Journal of Molecular Sciences, 2024).

Data set [1] concerns fibroblasts (ATCC-CRL-2106). The data set can be described thus: Cell counting / growth curves in in vitro culture. Type of data set: cell-based, human. The note with it: for fibroblast cell number / growth in comparison to the controls: 6–1500 µM; for GI50: Homo sapiens, Fibroblast, fibroblasts, concentration causing 50% cell growth inhibition, from cell growth graphs.
Data set [2] has as its system fibroblasts (ATCC-CRL-2106). The data set can be described thus: MTT test (cell metabolic activity). Type of data set: cell-based, human. The note with it: for IC50: Homo sapiens, Fibroblast, fibroblasts, 50% reduction in cell metabolism rate, MTT test. The protocol:
(§1) We investigated the cytotoxicity and effects of oxythiamine and 2′-methylthiamine on fibroblast (ATCC-CRL-2106) and HeLa (the human cervical cancer cell line; CCL-2; ATCC, Manassas, VA, USA) cell growth. Fibroblasts were at passage 5 and HeLa cells were at passage 15. Cells were cultured under the 5% CO2 and 95% humidity in Medium199 (M4530; Sigma-Aldrich, St. Louis, MO, USA) with 10% fetal bovine serum (F7524; Sigma-Aldrich), 50 U/mL penicillin, and 50 µg/mL streptomycin (P0781; Sigma-Aldrich) at 37 °C. The media was changed every 2 days. Cells were seeded at the density of 1 × 10^5 cells/well in 12-well plates one day prior to the addition of the test compounds. […] The toxicity of oxythiamine and 2′-methylthiamine was determined by means of colorimetric detection using the MTT test. The cells were incubated for 0.5 h in 0.5 mL of PBS with 50 μL of MTT (5 mg/mL). The medium was then removed from the wells, and formazan crystals were dissolved in 0.5 mL of dimethyl sulfoxide (DMSO) with 0.01 mL of Sorensen’s buffer. Absorbance was measured by means of the Lambda E plate reader (MWG Biotech AG, Ebensburg, Germany) at a wavelength of 570 nm. The results were expressed as a percentage of the controls. […] The experiments were conducted in six independent replicates for the purpose of statistical evaluation.
Background: Tetrazolium dyes change colour on reduction, which living cells bring about.

Data set [3] concerns HeLa cells. The data set is described as follows: MTT test (cell metabolic activity). The format is cell-based, human. The note with it: for IC50: HeLa cells, 50% reduction in cell metabolism rate, MTT test; for IC50 / SI (selectivity index): mean ± SD; for SI (selectivity index): ratio of IC50 (MTT) fibroblasts versus HeLa cells. As for the experimental part: as §1
For data set [4], the system named is HeLa cells. The data set is described as follows: Cell counting / growth curves in in vitro culture. Type of data set: cell-based, human. The note with it: for decrease in HeLa cell number compared to the control: 47 µM; for number of HeLa cells, % of the control: 1500 µM (maximum concentration); for GI50: HeLa cells, concentration causing 50% cell growth inhibition, from cell growth graphs, mean ± SD; for growth of HeLa cells in culture: microscopic observation / growth curves.

For the next data set, the target named is yeast transketolase. Also on record: method as in PMID 13719876. The note with it: cited from earlier work.
Data set [5] concerns primary human gingival fibroblasts. Also on record: method as in PMID 35409800. The note with it: 100 µM; cited from earlier work.
The next data set addresses rat liver transketolase. Also on record: method as in PMID 3730445. The note with it: cited from earlier work.
Another data set relates to human skin fibroblasts. Also on record: method as in PMID 25626895. The note with it: 30 µM to 1000 µM; cited from earlier work.
For a further data set, the system named is THTR2 (SLC19A3). The note with it: thiamine transport by THTR2; cited from earlier work.
The subject of another data set is THTR1 (SLC19A2). The note with it: thiamine transport by THTR1; cited from earlier work.
The next data set concerns OCT1. The note with it: OCT1-related transport of drugs to cancer cells; cited from earlier work.

Bounds are passed on as bounds.

Compound `Cc1ncc(C[n+]2c(C)sc(CCO)c2C)c(N)n1` [2′-methylthiamine, 2-[3-[(4-Amino-2-Methylpyrimidin-5-yl)methyl]-2,4-dimethyl-1,3-thiazol-3-ium-5-yl]ethanol] registered a melting point of 211 to 214 °C. In addition, in [1], the “fibroblast cell number / growth in comparison to the controls” value (“fibroblast cell number / growth” below) is listed as “did not find any significant differences” and the GI50 was over 1500 µM. The compound also displayed a half-maximal inhibitory concentration (IC50) in data set [2] of over 1500 µM. Moreover, the “decrease of metabolic activity of HeLa cells (MTT) concerning the control” value in the data set on HeLa cells [3] (750 µM) is reported as 30%. In the data set on HeLa cells [3] (Homo sapiens), this compound gave a half-inhibitory concentration (IC50) of 112 µM. The “SI (selectivity index)” value in the data set with HeLa cells [3] is on record as 180. In the data set on HeLa cells [4], the “decrease in HeLa cell number compared to the control” value is given as “decrease in the cell number by only about a half”; the “number of HeLa cells, % of the control” value is about 25%; the GI50 is 107 µM; the “growth of HeLa cells in culture” value is listed as “inhibit the growth”. Besides, the GI50 in the data set on HeLa cells [4] (Homo sapiens, HeLa) turned out to be 83 µM.

Consider `Cc1ncc(C[n+]2csc(CCO)c2C)c(O)n1` [oxythiamine], for which the IC50 was about 0.03 µM on yeast transketolase, over 1500 µM in data set [2], 51 µM in the data set on HeLa cells [3] (Homo sapiens) and 0.2 µM on rat liver transketolase. Further, the “reduction in cell viability” value in data set [5] is “about 10%”. Besides, the “fibroblast cell number / growth” value in data set [1] is listed as “did not find any significant differences”. The concentration for 50% growth inhibition (GI50) in data set [1] is over 1500 µM; in the data set with HeLa cells [4], 36 µM; with HeLa cells [4] (Homo sapiens, HeLa), 39 µM. In addition, in the data set with HeLa cells [3] (Homo sapiens, HeLa, 47 µM, read-out: metabolic activity of HeLa cells (MTT), % of control), the activity at 47 µM worked out at 50%. Besides, in the data set on HeLa cells [3], the “SI (selectivity index)” value came out at 153. Further, the “decrease in HeLa cell number compared to the control” value in the data set with HeLa cells [4] is “higher than five-fold decrease”. Besides, the “number of HeLa cells, % of the control” value in the data set on HeLa cells [4] amounted to 2%. The “growth of HeLa cells in culture” value with HeLa cells [4] is given as “inhibit the growth”. In the data set with human skin fibroblasts, the cell survival entry was “not affecting cell survival”.

With `Cc1ncc(C[n+]2csc(CCO)c2C)c(N)n1` [thiamine], the Km in the data set on THTR2 (SLC19A3) is 0.00027 µM; in the data set with THTR1 (SLC19A2) it was 2.5 µM. Moreover, in [1], the “fibroblast cell number / growth” value is reported as “did not observe any differences”. Further, the 50% growth inhibitory concentration (GI50) in [1] is over 1500 µM; in the data set on HeLa cells [4] (Homo sapiens, HeLa), over 1500 µM. Further, the half-maximal inhibitory concentration (IC50) (in data set [2]; in the data set on HeLa cells [3] (Homo sapiens)) was over 1500 µM in each case. Further, in data set [2] (concentrations above 47 µM), the “metabolic activity of fibroblasts (MTT)” value is “slightly increased”. Besides, the “growth of HeLa cells in culture” value in the data set with HeLa cells [4] is reported as “did not observe any differences”.

`C/C(=C(\CCOP(=O)(O)O)SC(=O)c1ccccc1)N(C=O)Cc1cnc(C)[nH]c1=O` [benfooxythiamine]: the “reduction in cell viability” value in data set [5] is given as “about 10%”.

As for `COc1cccc2c1C(=O)c1c(O)c3c(c(O)c1C2=O)C[C@@](O)(C(=O)CO)C[C@@H]3O[C@H]1C[C@H](N)[C@H](O)[C@H](C)O1` [doxorubicin], the Km in the data set on OCT1 is 4.6 µM.

As a reminder, the GI50 is the concentration that inhibits growth by half. By IC50 is commonly meant the point on the concentration scale where inhibition reaches its midpoint. What is called melting point is the temperature of the solid-liquid transition. Usually Km stands for the concentration of substrate that gives half-maximal velocity.
